The values that follow are results of earlier work, collected in paper PMC9311059, “P‐Glycoprotein and Breast Cancer Resistance Protein Transporter Inhibition by Cyclosporine and Quinidine on the Pharmacokinetics of Oral Rimegepant in Healthy Subjects” (Clinical Pharmacology in Drug Development, 2022).

For the data set the following is noted: oral midazolam coadministered with cyclosporine; cited from earlier work.

For `Cc1ncc2n1-c1ccc(Cl)cc1C(c1ccccc1F)=NC2` [midazolam], the “change in midazolam Cmax” value is “no meaningful change” and the “increase in midazolam AUC” value is listed as 46%.
